This note sets out measurements from patent US8017602B2, “N-(2-(2-(5-hydroxy-3-oxo-3,4-dihydro-2H-benzo[b][1,4]oxazin-8-yl)ethylamino)ethyl)-3-(phenethoxy)propanamide derivatives, processes for their preparation, pharmaceutical compositions containing them and their use in therapy” (AstraZeneca AB, priority 2008, dated 2011).

For orientation: IC50 means the point on the concentration scale where inhibition reaches its midpoint.

Counter-ions that a name gives are not always drawn.

For assay [1], the target named is T1, Adrenergic β2 (Homo sapiens, UniProt P07550).
T1 construct: Adherent H292 cells were removed from tissue culture flasks; endogenous in cells; host or cells: H292 cells
T1 sequence (P07550 whole entry): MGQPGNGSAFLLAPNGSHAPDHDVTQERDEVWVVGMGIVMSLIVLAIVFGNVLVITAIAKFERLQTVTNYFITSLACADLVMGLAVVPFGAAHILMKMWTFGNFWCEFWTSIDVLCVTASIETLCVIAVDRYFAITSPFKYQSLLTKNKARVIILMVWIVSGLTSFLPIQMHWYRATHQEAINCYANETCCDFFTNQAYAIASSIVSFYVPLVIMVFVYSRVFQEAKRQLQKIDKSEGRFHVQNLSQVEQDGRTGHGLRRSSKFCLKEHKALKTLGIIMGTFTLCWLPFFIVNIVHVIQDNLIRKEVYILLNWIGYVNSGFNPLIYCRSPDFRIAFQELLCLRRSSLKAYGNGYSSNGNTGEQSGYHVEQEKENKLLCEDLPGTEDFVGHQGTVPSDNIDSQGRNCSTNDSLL
Briefly: Adrenergic β2 mediated cAMP production in H292 cells (AlphaScreen cAMP detection). The following applies: for β2 Int Act: Intrinsic Activity, fraction relative to the maximum activity determined for formoterol; for EC50: cAMP production, 60 min at room temperature, 300 μM rolipram, read-out: β2 pEC50 (converted). The assay is classed as cell-based. The procedure, abridged:
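H292 cells, pretreated 10 min with rolipram (300 μM final), were exposed to agonist for 60 min at room temperature in HBSS/10 mM HEPES pH 7.4 with 1.6% DMSO. Lysate cAMP was read by AlphaScreen against a standard curve; four-parameter fits gave pEC50 and intrinsic activity as a fraction of the formoterol maximum.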

Assay [2] addresses T2, recombinant human adrenergic beta 1 receptors (Homo sapiens, UniProt P08588).
T2 construct: purchased Euroscreen
Briefly: Adrenergic β1 selectivity binding assay ([125I]-Iodocyanopindolol). The following applies: inhibition of [125I]-Iodocyanopindolol binding, human β1 membranes; read-out: β1 bind p IC50 (converted). In a few lines: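 Membranes with recombinant human β1 receptors in HEPES/EDTA/NaCl/gelatin buffer, pH 7.4, competed against [125I]-iodocyanopindolol (0.036 nM final), 2 h at room temperature; 10 μM propranolol defined non-specific binding. Filter-bound radioactivity counted; pIC50 from four-parameter logistic fit.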

T2 sequence (P08588 whole entry): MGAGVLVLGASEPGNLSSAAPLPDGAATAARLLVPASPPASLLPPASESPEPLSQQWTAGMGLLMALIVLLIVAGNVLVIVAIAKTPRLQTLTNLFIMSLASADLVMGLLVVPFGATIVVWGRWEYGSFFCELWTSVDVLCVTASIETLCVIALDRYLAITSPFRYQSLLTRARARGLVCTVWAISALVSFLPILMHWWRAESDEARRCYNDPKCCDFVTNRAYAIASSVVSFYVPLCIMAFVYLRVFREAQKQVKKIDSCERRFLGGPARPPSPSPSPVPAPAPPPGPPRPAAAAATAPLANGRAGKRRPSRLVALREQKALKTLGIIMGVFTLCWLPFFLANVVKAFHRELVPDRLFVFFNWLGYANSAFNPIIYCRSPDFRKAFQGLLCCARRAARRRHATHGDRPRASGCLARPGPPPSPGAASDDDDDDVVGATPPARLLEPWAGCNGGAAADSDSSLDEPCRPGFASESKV

For `CCn1ccnc1-c1cccc(CCOCCC(=O)N(CCNCCc2ccc(O)c3c2OCC(=O)N3)C2CCCCC2)c1` [Example 29, N-Cyclohexyl-3-(3-(1-ethyl-1H-imidazol-2-yl)phenethoxy)-N-(2-(2-(5-hydroxy-3-oxo-3,4-dihydro-2H-benzo[b][1,4]oxazin-8-yl)ethylamino)ethyl)propanamide Trifluoroacetic Acid Salt], in assay [1], the “β2 Int Act” value is recorded as 0.90 and the EC50 was 50.1 nM. Further, in assay [2], the concentration for half-maximal inhibition (IC50) was more than 7940 nM.

For the compound `CCCC[C@@H](C)N(CCNCCc1ccc(O)c2c1OCC(=O)N2)C(=O)CCOCCc1cccc(-c2cnn(C)c2)c1` [Example 30, (R)—N-(Hexan-2-yl)-N-(2-(2-(5-hydroxy-3-oxo-3,4-dihydro-2H-benzo[b][1,4]oxazin-8-yl)ethylamino)ethyl)-3-(3-(1-methyl-1H-pyrazol-4-yl)phenethoxy)propanamide Trifluoroacetic Acid Salt], in assay [1], the “β2 Int Act” value came to 0.93 and the EC50 is 12.6 nM. Also, the IC50 in assay [2] was 3980 nM.

With `Cn1cc(-c2cccc(CCOCCC(=O)N(CCNCCc3ccc(O)c4c3OCC(=O)N4)C3CCCCCC3)c2)cn1` [Example 31, N-Cycloheptyl-N-(2-(2-(5-hydroxy-3-oxo-3,4-dihydro-2H-benzo[b][1,4]oxazin-8-yl)ethylamino)ethyl)-3-(3-(1-methyl-1H-pyrazol-4-yl)phenethoxy)propanamide Trifluoroacetic Acid Salt], in assay [1], the “β2 Int Act” value is 0.93 and the EC50 was 3.16 nM. The half-inhibitory concentration (IC50) in assay [2] was 5010 nM.

For `Cc1nc(-c2cccc(CCOCCC(=O)N(CCNCCc3ccc(O)c4c3OCC(=O)N4)C3CCCCC3)c2)[nH]c1C` [Example 32, N-Cyclohexyl-3-(3-(4,5-dimethyl-1H-imidazol-2-yl)phenethoxy)-N-(2-(2-(5-hydroxy-3-oxo-3,4-dihydro-2H-benzo[b][1,4]oxazin-8-yl)ethylamino)ethyl)propanamide], in assay [1], the “β2 Int Act” value was determined as 1.00 and the EC50 is 7.94 nM. For the same compound, in assay [2], the half-maximal inhibitory concentration (IC50) was 5010 nM.

As for `Cn1ccnc1-c1cccc(CCOCCC(=O)N(CCNCCc2ccc(O)c3c2OCC(=O)N3)C2CCCCC2)c1` [Example 33, N-Cyclohexyl-N-(2-(2-(5-hydroxy-3-oxo-3,4-dihydro-2H-benzo[b][1,4]oxazin-8-yl)ethylamino)ethyl)-3-(3-(1-methyl-1H-imidazol-2-yl)phenethoxy)propanamide], in assay [1], the “β2 Int Act” value is on record as 0.93 and the EC50 is 12.6 nM. The concentration for half-maximal inhibition (IC50) in assay [2] is more than 10000 nM.

With `Cc1nc(-c2cccc(CCOCCC(=O)N(CCNCCc3ccc(O)c4c3OCC(=O)N4)C3CCCCC3)c2)cn1C` [Example 35, N-Cyclohexyl-3-(3-(1,2-dimethyl-1H-imidazol-4-yl)phenethoxy)-N-(2-(2-(5-hydroxy-3-oxo-3,4-dihydro-2H-benzo[b][1,4]oxazin-8-yl)ethylamino)ethyl)propanamide Trifluoroacetic Acid Salt], in assay [1], the “β2 Int Act” value was found to be 1.03 and the EC50 was 12.6 nM. For the same compound, the 50% inhibitory concentration (IC50) in assay [2] is more than 10000 nM.

As for `COCCn1cc(-c2cccc(CCOCCC(=O)N(CCNCCc3ccc(O)c4c3OCC(=O)N4)C3CCCCC3)c2)cn1` [Example 36, N-Cyclohexyl-N-(2-(2-(5-hydroxy-3-oxo-3,4-dihydro-2H-benzo[b][1,4]oxazin-8-yl)ethylamino)ethyl)-3-(3-(1-(2-methoxyethyl)-1H-pyrazol-4-yl)phenethoxy)propanamide Trifluoroacetic Acid Salt], in assay [1], the “β2 Int Act” value turned out to be 1.05 and the EC50 was 20 nM. The IC50 in assay [2] is more than 10000 nM.

On to `Cc1c(-c2cccc(CCOCCC(=O)N(CCNCCc3ccc(O)c4c3OCC(=O)N4)C3CCCCC3)c2)cnn1C` [Example 37, N-Cyclohexyl-3-(3-(1,5-dimethyl-1H-pyrazol-4-yl)phenethoxy)-N-(2-(2-(5-hydroxy-3-oxo-3,4-dihydro-2H-benzo[b][1,4]oxazin-8-yl)ethylamino)ethyl)propanamide Trifluoroacetic Acid Salt], for which, in assay [1], the “β2 Int Act” value is 0.85 and the EC50 is 6.31 nM. In addition, the IC50 in assay [2] is more than 10000 nM.
